“And” between values parts separate entries of the source, which are not always exact repeats. Equal values may be shown once. Toxic doses and inconclusive results are not listed. How the source made its calls: active means survival T/C of 150% or more; inactive means T/C below 125% in these data.
System: P388 leukemia ip, CD2F1 mice, survival T/C
Assay: NCI In Vivo Anticancer Drug Screen. Data for tumor model P388 Leukemia (intraperitoneal) in CD2F1 (CDF1) mice
Conditions: endpoint: median survival time, higher = longer survival
How it was run: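 Mice carrying the transplanted tumor received test compound or vehicle. Survival was recorded in each group, and the value is the treated-group measurement divided by that of the vehicle-treated control group.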

[1] = dose: 25.0 mg/kg/injection, schedule: Q01DX009 (ip), vehicle: Klucel (hydroxypropylcellulose) (HPC)
[2] = dose: 12.5 mg/kg/injection, schedule: Q01DX005 (ip), vehicle: Klucel (hydroxypropylcellulose) (HPC)
[3] = dose: 25.0 mg/kg/injection, schedule: Q01DX005 (ip), vehicle: Klucel (hydroxypropylcellulose) (HPC)
[4] = dose: 50.0 mg/kg/injection, schedule: Q01DX005 (ip), vehicle: Klucel (hydroxypropylcellulose) (HPC)
[5] = dose: 60.0 mg/kg/injection, schedule: Q01DX005 (ip), vehicle: saline with Tween-80
[6] = dose: 120.0 mg/kg/injection, schedule: Q01DX005 (ip), vehicle: saline with Tween-80
[7] = dose: 240.0 mg/kg/injection, schedule: Q01DX005 (ip), vehicle: saline with Tween-80
[8] = dose: 50.0 mg/kg/injection, schedule: Q01DX005 (ip), vehicle: saline with Tween-80
[9] = dose: 100.0 mg/kg/injection, schedule: Q01DX005 (ip), vehicle: saline with Tween-80
[10] = dose: 200.0 mg/kg/injection, schedule: Q01DX005 (ip), vehicle: saline with Tween-80
[11] = dose: 100.0 mg/kg/injection, schedule: Q04DX003 (ip), vehicle: saline with Tween-80
[12] = dose: 200.0 mg/kg/injection, schedule: Q04DX003 (ip), vehicle: saline with Tween-80
[13] = dose: 50.0 mg/kg/injection, schedule: Q01DX009 (ip), vehicle: saline
[14] = dose: 100.0 mg/kg/injection, schedule: Q01DX009 (ip), vehicle: saline
[15] = dose: 200.0 mg/kg/injection, schedule: Q01DX009 (ip), vehicle: saline

Measured: T/C

Clc1ccc(C[Se][Se]Cc2ccc(Cl)cc2)cc1
inactive: dose: 6.25 mg/kg/injection, schedule: Q01DX009 (ip), vehicle: Klucel (hydroxypropylcellulose) (HPC) 109 % of control | dose: 12.5 mg/kg/injection, schedule: Q01DX009 (ip), vehicle: Klucel (hydroxypropylcellulose) (HPC) 108 % of control | [1] 101 % of control

CC1C(=O)CCC2C1(C)CCC1C2(C)CCC2(C)C3CC(C)(C(=O)O)CCC3(C)CCC12C (configuration not stated)
inactive: [2] 94 % of control | [3] 100 % of control | [4] 88 % of control | dose: 100.0 mg/kg/injection, schedule: Q01DX005 (ip), vehicle: Klucel (hydroxypropylcellulose) (HPC) 87 % of control

C=CCOc1cc(=O)[nH]c2ccccc12
inactive: dose: 60.0 mg/kg/injection, schedule: Q01DX005 (ip), vehicle: Klucel (hydroxypropylcellulose) (HPC) 100 % of control | dose: 120.0 mg/kg/injection, schedule: Q01DX005 (ip), vehicle: Klucel (hydroxypropylcellulose) (HPC) 97 % of control | dose: 240.0 mg/kg/injection, schedule: Q01DX005 (ip), vehicle: Klucel (hydroxypropylcellulose) (HPC) 91 % of control

O=C1CCC(Cc2ccc(Br)cc2)C(=O)N1 (configuration not stated)
inactive: [5] 104 % of control | [6] 98 % of control | [7] 98 % of control

CC1Cc2nc3ccccc3nc2C1
inactive: [5] 99 % of control | [6] 99 % of control | [7] 104 % of control

C=C(C)[C@H]1Cc2c(ccc3c2O[C@@H]2COc4cc(OC)c(OC)cc4[C@@H]2C3=O)O1
inactive: dose: 1.5 mg/kg/injection, schedule: Q01DX009 (ip), vehicle: saline with Tween-80 110 % of control | dose: 1.5 mg/kg/injection, schedule: Q04DX003 (ip), vehicle: saline with Tween-80 100 % of control | dose: 3.0 mg/kg/injection, schedule: Q01DX009 (ip), vehicle: saline with Tween-80 115 % of control | dose: 3.0 mg/kg/injection, schedule: Q04DX003 (ip), vehicle: saline with Tween-80 100 % of control | dose: 6.0 mg/kg/injection, schedule: Q01DX009 (ip), vehicle: saline with Tween-80 120 % of control | dose: 6.0 mg/kg/injection, schedule: Q04DX003 (ip), vehicle: saline with Tween-80 104 % of control | dose: 12.5 mg/kg/injection, schedule: Q01DX001 (ip), vehicle: saline with Tween-80 110 % of control | dose: 25.0 mg/kg/injection, schedule: Q01DX001 (ip), vehicle: saline with Tween-80 114 % of control | dose: 50.0 mg/kg/injection, schedule: Q01DX001 (ip), vehicle: saline with Tween-80 112 % of control

CCOc1cc2c(cc1C(C)c1ccc(Cl)cc1)OCO2 (configuration not stated)
inactive: [8] 93 % of control | [9] 99 % of control | [10] 93 % of control

O=C(O)C1=CC2C=C(Cl)C=CC2OC1=O (configuration not stated)
inactive: [5] 100 % of control | [6] 100 % of control

CC(C)(C)c1ccc(SS(=O)(=O)c2ccc(C(C)(C)C)cc2)cc1
inactive: dose: 100.0 mg/kg/injection, schedule: Q01DX001 (ip), vehicle: saline with Tween-80 98 % of control | dose: 100.0 mg/kg/injection, schedule: Q04DX003 (ip), vehicle: Klucel (hydroxypropylcellulose) (HPC) 97 % of control | dose: 200.0 mg/kg/injection, schedule: Q01DX001 (ip), vehicle: saline with Tween-80 100 % of control | dose: 200.0 mg/kg/injection, schedule: Q04DX003 (ip), vehicle: Klucel (hydroxypropylcellulose) (HPC) 104 % of control | dose: 400.0 mg/kg/injection, schedule: Q01DX001 (ip), vehicle: saline with Tween-80 97 % of control | dose: 400.0 mg/kg/injection, schedule: Q04DX003 (ip), vehicle: Klucel (hydroxypropylcellulose) (HPC) 105 % of control

O=[N+]([O-])c1ccc(NCCO)c([N+](=O)[O-])c1
inactive: [11] 100 % of control | [12] 100 % of control | dose: 400.0 mg/kg/injection, schedule: Q04DX003 (ip), vehicle: saline with Tween-80 90 % of control

CC(C)NCC(N)C(=O)O (configuration not stated)
inactive: dose: 55.0 mg/kg/injection, schedule: Q01DX001 (ip), vehicle: saline 102 % of control | dose: 110.0 mg/kg/injection, schedule: Q01DX001 (ip), vehicle: saline 102 % of control | dose: 220.0 mg/kg/injection, schedule: Q01DX001 (ip), vehicle: saline 99 % of control

O=C1Nc2cc3c(cc2C(=O)N2C/C(=N/O)CC12)OCO3 (configuration not stated)
inactive: [8] 107 % of control | [9] 99 % of control | [10] 101 % of control

CCCCCCCCCCCCOC(=O)CN=C=O
inactive: [13] 100 % of control and 101 % of control | [14] 100 % of control | [15] 107 % of control and 89 % of control

CCN(CC)CCOc1ccc(C2c3cc(OC)ccc3CC2Cc2cccc(Cl)c2)cc1 (configuration not stated)
inactive: dose: 6.25 mg/kg/injection, schedule: Q01DX005 (ip), vehicle: Klucel (hydroxypropylcellulose) (HPC) 98 % of control | [2] 95 % of control | [3] 96 % of control | [4] 93 % of control

COc1ccc(Cl)c(C)c1C(=O)OC1CC(OC2C(O)CC(OC3CCCC4C3C=CC3CCCC/C=C/C5C=C(C(=O)O)C(C)CC56OC(=O)C(=C6O)OC(=O)C34C)OC2C)OC(C)C1O (configuration not stated)
inactive: [1] 103 % of control | dose: 50.0 mg/kg/injection, schedule: Q01DX009 (ip), vehicle: Klucel (hydroxypropylcellulose) (HPC) 97 % of control | dose: 100.0 mg/kg/injection, schedule: Q01DX009 (ip), vehicle: Klucel (hydroxypropylcellulose) (HPC) 89 % of control

CCN(CC)CCNC1CC2CCC1(C)C2(C)C (configuration not stated)
inactive: dose: 25.0 mg/kg/injection, schedule: Q01DX005 (ip), vehicle: saline with Tween-80 98 % of control | [8] 91 % of control | [9] 89 % of control

CCCCC(=O)c1c(O)c2ccccc2oc1=O
inactive: dose: 15.0 mg/kg/injection, schedule: Q01DX005 (ip), vehicle: saline with Tween-80 100 % of control | dose: 30.0 mg/kg/injection, schedule: Q01DX005 (ip), vehicle: saline with Tween-80 97 % of control | [5] 116 % of control and 94 % of control

NC(CCCNc1ccc(O)cc1)C(=O)O (configuration not stated)
inactive: dose: 50.0 mg/kg/injection, schedule: Q01DX005 (ip), vehicle: saline 100 % of control | dose: 100.0 mg/kg/injection, schedule: Q01DX005 (ip), vehicle: saline 99 % of control and 104 % of control | dose: 200.0 mg/kg/injection, schedule: Q01DX005 (ip), vehicle: saline 98 % of control

OCC1OC(Oc2ccc(O)cc2)C(O)C(O)C1O (configuration not stated)
inactive: dose: 4.5 mg/kg/injection, schedule: Q01DX009 (ip), vehicle: Klucel (hydroxypropylcellulose) (HPC) 97 % of control | dose: 9.0 mg/kg/injection, schedule: Q01DX009 (ip), vehicle: Klucel (hydroxypropylcellulose) (HPC) 90 % of control | dose: 18.0 mg/kg/injection, schedule: Q01DX009 (ip), vehicle: Klucel (hydroxypropylcellulose) (HPC) 90 % of control | dose: 36.0 mg/kg/injection, schedule: Q01DX009 (ip), vehicle: Klucel (hydroxypropylcellulose) (HPC) 98 % of control | [13] 102 % of control | [14] 102 % of control | [15] 102 % of control | dose: 400.0 mg/kg/injection, schedule: Q01DX009 (ip), vehicle: saline 106 % of control

CC1=C(/C=C/C(C)=C/C=C/C(C)=C/CO)C(C)(C)CCC1
inactive: [8] 98 % of control | [9] 94 % of control | [11] 100 % of control | [10] 116 % of control | [12] 100 % of control

— PubChem BioAssay AID330 (DTP/NCI, 2004)
